#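 Tested at 5 concentrations; 48 h exposure; 96-well plates; endpoints linearly interpolated, else capped at highest concentration. The concentration for full growth arrest is given as TGI.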
# How the values were obtained:
# Test in all cases: growth of human tumour cells (NCI), 48 h
# XF 498 CNS = system: XF 498 CNS
# UO-31 renal = system: UO-31 renal
# TK-10 renal = system: TK-10 renal
# SR leukemia = system: SR leukemia
# NCI-H460 lung = system: NCI-H460 lung
# MALME-3M melanoma = system: MALME-3M melanoma
# HOP-92 NSCLC = system: HOP-92 NSCLC
# OVCAR-8 ovarian = system: OVCAR-8 ovarian
# HCT-116 colon = system: HCT-116 colon
# UACC-257 melanoma = system: UACC-257 melanoma
# A549 NSCLC = system: A549 NSCLC
# SF-268 CNS = system: SF-268 CNS
# MOLT-4 leukemia = system: MOLT-4 leukemia
# SW-620 colon = system: SW-620 colon
# EKVX NSCLC = system: EKVX NSCLC
# DMS 114 small cell lung = system: DMS 114 small cell lung
# SK-MEL-2 melanoma = system: SK-MEL-2 melanoma
# SNB-19 CNS = system: SNB-19 CNS
# HOP-62 NSCLC = system: HOP-62 NSCLC
# SF-539 CNS = system: SF-539 CNS
# SK-MEL-28 melanoma = system: SK-MEL-28 melanoma
# SK-MEL-5 melanoma = system: SK-MEL-5 melanoma
# UACC-62 melanoma = system: UACC-62 melanoma
# M14 melanoma = system: M14 melanoma
# SN12C renal = system: SN12C renal
# NCI-H226 lung = system: NCI-H226 lung
# RPMI-8226 leukemia = system: RPMI-8226 leukemia
# LOX IMVI melanoma = system: LOX IMVI melanoma
# OVCAR-3 ovarian = system: OVCAR-3 ovarian
# K-562 leukemia = system: K-562 leukemia
# HT29 colon = system: HT29 colon
# OVCAR-5 ovarian = system: OVCAR-5 ovarian
# LXFL 529 NSCLC = system: LXFL 529 NSCLC
# NCI-H23 lung = system: NCI-H23 lung
# NCI-H522 lung = system: NCI-H522 lung
# SF-295 CNS = system: SF-295 CNS
# CCRF-CEM leukemia = system: CCRF-CEM leukemia
# IGROV1 ovarian = system: IGROV1 ovarian
# HCT-15 colon = system: HCT-15 colon
# RXF 393 renal = system: RXF 393 renal
# COLO 205 colon = system: COLO 205 colon
# 786-0 renal = system: 786-0 renal
# U251 CNS = system: U251 CNS
# KM12 colon = system: KM12 colon
# SK-OV-3 ovarian = system: SK-OV-3 ovarian
# KM20L2 colon = system: KM20L2 colon
# M19-MEL melanoma = system: M19-MEL melanoma
# SNB-75 CNS = system: SNB-75 CNS
# HOP-18 NSCLC = system: HOP-18 NSCLC
# A498 renal = system: A498 renal
# HL-60(TB) leukemia = system: HL-60(TB) leukemia
# ACHN renal = system: ACHN renal
# DLD-1 colon = system: DLD-1 colon
# HCC-2998 colon = system: HCC-2998 colon
# NCI/ADR-RES ovarian = system: NCI/ADR-RES ovarian
# T-47D breast = system: T-47D breast
# OVCAR-4 ovarian = system: OVCAR-4 ovarian
# MDA-MB-435 = system: MDA-MB-435
# BT-549 breast = system: BT-549 breast
# MDA-N = system: MDA-N
# HS 578T breast = system: HS 578T breast
# CAKI-1 renal = system: CAKI-1 renal
# MCF7 breast = system: MCF7 breast
# PC-3 prostate = system: PC-3 prostate
# DU-145 prostate = system: DU-145 prostate
# MDA-MB-231 breast = system: MDA-MB-231 breast
smiles,measurement,setting,value
Cc1[nH]c2c(C)cccc2c1C1Cc2ccccc2N1 (centres undefined),TGI,XF 498 CNS,38.4 µM
same,TGI,UO-31 renal,65.7 µM
same,TGI,TK-10 renal,62.2 µM
same,TGI,SR leukemia,66.7 µM
same,TGI,NCI-H460 lung,51.7 µM
same,TGI,MALME-3M melanoma,41.7 µM
same,TGI,HOP-92 NSCLC,0.0966 µM
same,TGI,OVCAR-8 ovarian,40.2 µM
same,TGI,HCT-116 colon,30.9 µM
same,TGI,UACC-257 melanoma,42.7 µM
same,TGI,A549 NSCLC,62.2 µM
same,TGI,SF-268 CNS,48.2 µM
same,TGI,MOLT-4 leukemia,48.3 µM
same,TGI,SW-620 colon,56.4 µM
same,TGI,EKVX NSCLC,35.9 µM
same,TGI,DMS 114 small cell lung,45.2 µM
same,TGI,SK-MEL-2 melanoma,54.3 µM
same,TGI,SNB-19 CNS,69.8 µM
same,TGI,HOP-62 NSCLC,32.3 µM
same,TGI,SF-539 CNS,33.7 µM
same,TGI,SK-MEL-28 melanoma,36.7 µM
same,TGI,SK-MEL-5 melanoma,33.4 µM
same,TGI,UACC-62 melanoma,32.8 µM
same,TGI,M14 melanoma,29.6 µM
same,TGI,SN12C renal,41 µM
same,TGI,NCI-H226 lung,57.1 µM
same,TGI,RPMI-8226 leukemia,74.6 µM
same,TGI,LOX IMVI melanoma,31 µM
same,TGI,OVCAR-3 ovarian,33 µM
same,TGI,K-562 leukemia,67 µM
same,TGI,HT29 colon,35.3 µM
same,TGI,OVCAR-5 ovarian,41.3 µM
same,TGI,LXFL 529 NSCLC,36.4 µM
same,TGI,NCI-H23 lung,39.8 µM
same,TGI,NCI-H522 lung,41.2 µM
same,TGI,SF-295 CNS,41 µM
same,TGI,CCRF-CEM leukemia,74.1 µM
same,TGI,IGROV1 ovarian,36.7 µM
same,TGI,HCT-15 colon,49.2 µM
same,TGI,RXF 393 renal,23.1 µM
same,TGI,COLO 205 colon,32.3 µM
same,TGI,786-0 renal,46.9 µM
same,TGI,U251 CNS,41.4 µM
same,TGI,KM12 colon,32.4 µM
same,TGI,SK-OV-3 ovarian,> 100 µM
same,TGI,KM20L2 colon,31.4 µM
same,TGI,M19-MEL melanoma,46.1 µM
same,TGI,SNB-75 CNS,> 100 µM
same,TGI,HOP-18 NSCLC,35.2 µM
same,TGI,A498 renal,87.7 µM
same,TGI,HL-60(TB) leukemia,43 µM
same,TGI,ACHN renal,74.9 µM
same,TGI,DLD-1 colon,79.8 µM
COc1nc(NC2OC(COC(C)=O)C(OC(C)=O)C(OC(C)=O)C2OC(C)=O)c(N=CC=Nc2c(NC3OC(COC(C)=O)C(OC(C)=O)C(OC(C)=O)C3OC(C)=O)nc(OC)n(C)c2=O)c(=O)n1C (centres undefined),TGI,XF 498 CNS,81.9 µM
same,TGI,UO-31 renal,> 100 µM
same,TGI,TK-10 renal,> 100 µM
same,TGI,SR leukemia,> 100 µM
same,TGI,NCI-H460 lung,> 100 µM
same,TGI,MALME-3M melanoma,> 100 µM
same,TGI,HOP-92 NSCLC,> 93.1 µM
same,TGI,OVCAR-8 ovarian,> 100 µM
same,TGI,HCT-116 colon,> 100 µM
same,TGI,HCC-2998 colon,> 100 µM
same,TGI,UACC-257 melanoma,> 100 µM
same,TGI,A549 NSCLC,> 100 µM
same,TGI,SF-268 CNS,> 100 µM
same,TGI,MOLT-4 leukemia,> 100 µM
same,TGI,SW-620 colon,> 100 µM
same,TGI,EKVX NSCLC,> 100 µM
same,TGI,DMS 114 small cell lung,> 100 µM
same,TGI,SK-MEL-2 melanoma,> 100 µM
same,TGI,NCI/ADR-RES ovarian,> 100 µM
same,TGI,T-47D breast,> 100 µM
same,TGI,SNB-19 CNS,> 100 µM
same,TGI,HOP-62 NSCLC,> 86.6 µM
same,TGI,SF-539 CNS,> 100 µM
same,TGI,OVCAR-4 ovarian,> 100 µM
same,TGI,SK-MEL-28 melanoma,> 100 µM
same,TGI,MDA-MB-435,> 100 µM
same,TGI,SK-MEL-5 melanoma,> 100 µM
same,TGI,UACC-62 melanoma,> 100 µM
same,TGI,M14 melanoma,> 100 µM
same,TGI,SN12C renal,> 100 µM
same,TGI,NCI-H226 lung,> 100 µM
same,TGI,RPMI-8226 leukemia,> 100 µM
same,TGI,BT-549 breast,> 100 µM
same,TGI,LOX IMVI melanoma,> 100 µM
same,TGI,OVCAR-3 ovarian,> 100 µM
same,TGI,K-562 leukemia,> 100 µM
same,TGI,HT29 colon,> 100 µM
same,TGI,MDA-N,> 100 µM
same,TGI,OVCAR-5 ovarian,> 100 µM
same,TGI,LXFL 529 NSCLC,> 100 µM
same,TGI,HS 578T breast,90.2 µM
same,TGI,NCI-H23 lung,> 100 µM
same,TGI,NCI-H522 lung,> 100 µM
same,TGI,SF-295 CNS,> 100 µM
same,TGI,CCRF-CEM leukemia,> 100 µM
same,TGI,IGROV1 ovarian,> 100 µM
same,TGI,HCT-15 colon,> 100 µM
same,TGI,RXF 393 renal,> 100 µM
same,TGI,CAKI-1 renal,> 100 µM
same,TGI,COLO 205 colon,> 100 µM
same,TGI,786-0 renal,> 100 µM
same,TGI,MCF7 breast,> 100 µM
same,TGI,U251 CNS,> 100 µM
same,TGI,KM12 colon,> 100 µM
same,TGI,SK-OV-3 ovarian,> 100 µM
same,TGI,KM20L2 colon,> 100 µM
same,TGI,PC-3 prostate,> 100 µM
same,TGI,M19-MEL melanoma,> 100 µM
same,TGI,SNB-75 CNS,48.2 µM
same,TGI,DU-145 prostate,> 100 µM
same,TGI,HOP-18 NSCLC,> 100 µM
same,TGI,A498 renal,> 100 µM
same,TGI,MDA-MB-231 breast,> 100 µM
same,TGI,HL-60(TB) leukemia,> 100 µM
same,TGI,ACHN renal,> 100 µM
same,TGI,DLD-1 colon,> 100 µM

# Source: PubChem BioAssay (NCI)
